Measurements from patent US10206937B2, “Boronic acid derivatives and therapeutic uses thereof” (Qpex Biopharma, Inc., priority 2014, dated 2019).
Converted amounts (≈) assume the structure as drawn. Like-named read-outs stand apart in the source and are kept apart here.

How the values were obtained:
[1] = test system: EC1064 (NDM-1, CMY-6, CTX-M-15); assay: Carbapenem potentiation against clinical isolate (MIC); type: cell-based, Escherichia coli; settings: for Carbapenem MIC Alone: antibiotic alone
[2] = test system: KP1081 (NDM-1, TEM-1, SHV-11, CMY-6, CTX-M-15); assay: as above; type: cell-based; settings: for Carbapenem MIC Alone: antibiotic alone
[3] = test system: KP1074 (KPC-3, SHV-11, TEM); assay: as above; type: cell-based, Klebsiella pneumoniae; settings: for Carbapenem MIC Alone: antibiotic alone
[4] = test system: KP1086 (TEM, SHV, CTX-M-15, OXA-48); assay: as above; type: cell-based, Klebsiella pneumoniae; settings: for Carbapenem MIC Alone: antibiotic alone
[5] = test system: KP1054 (VIM-1, SHV-11); assay: as above; type: cell-based, Klebsiella pneumoniae; settings: for Carbapenem MIC Alone: antibiotic alone
[6] = test system: KP1084 (KPC-3, SHV-11, TEM-1); assay: as above; type: cell-based, Klebsiella pneumoniae; settings: for Carbapenem MIC Alone: antibiotic alone
[7] = test system: KP1064 (KPC-2, SHV-11, TEM-1); assay: as above; type: cell-based, Klebsiella pneumoniae; settings: for Carbapenem MIC Alone: antibiotic alone
[8] = test system: KP1059 (VIM-1, SHV-11); assay: Biapenem potentiation against clinical isolate (MIC); type: cell-based; settings: Klebsiella pneumoniae, biapenem alone
From the text: The results are present in Table 9.

[9] = test system: AB1144 (NDM-1); assay: Carbapenem potentiation against clinical isolate (MIC); type: cell-based, Acinetobacter baumannii
[10] = test system: KP1014 (VIM-1); assay: as above; type: cell-based, Klebsiella pneumoniae; settings: for Carbapenem MIC Alone: antibiotic alone
[11] = test system: KP1087 (KPC-2, CTX-M-15, SHV-11, TEM-1); assay: as above; type: cell-based; settings: for Carbapenem MIC Alone: antibiotic alone
[12] = test system: KP1004 (KPC-2, TEM-1, SHV-11); assay: as above; type: cell-based, Klebsiella pneumoniae; settings: for Carbapenem MIC Alone: antibiotic alone
[13] = test system: EA1019 (SHV-5, VIM-1); assay: as above; type: cell-based, Enterobacter aerogenes
[14] = test system: ECM6703 (pUCP24-NDM-1); type: cell-based, E. coli
[15] = test system: ECM6704 (pUCP24); assay: microbe, parasite or virus in culture; type: cell-based, E. coli; settings: Escherichia coli, read-out: Imipenem MIC Alone
[16] = test system: strains of Enterobacteriaceae overexpressing various carbapenemases (class A and B); assay: organism not typed; type: cell-based
From the text: Several strains simultaneously expressing both class A and class B carbapenemases, which were constructed using conjugation, were also included in the panel.

[17] = test system: ECM6711 (pUCP24-VIM-1); type: cell-based, E. coli
[18] = Klebsiella pneumoniae, biapenem alone

Question: How did the MIC ([1]; Escherichia coli, biapenem alone) turn out when C[C@@H](O)[C@H]1C(=O)N2C(C(=O)[O-])=C(SC3Cn4cnc[n+]4C3)[C@H](C)[C@H]12 (stereo partly drawn) [Biapenem] was run?
Answer: Its MIC is greater than 10 µg/mL.

Question: And the “Carbapenem MIC Alone” value [1]?
Answer: Its value is “Z (MIC of greater than 10 μg/mL)”.

Question: And the MIC [2, 18]?
Answer: The MIC was greater than 10 µg/mL.

Question: What about the “Carbapenem MIC Alone” value [2] of the same molecule?
Answer: The value was “Z (MIC of greater than 10 μg/mL)”.

Question: And the MIC [3, 18]?
Answer: The MIC was greater than 10 µg/mL.

Question: And the “Carbapenem MIC Alone” value [3]?
Answer: Its value is “Z (MIC of greater than 10 μg/mL)”.

Question: What about the MIC [4, 18] of the same molecule?
Answer: Its MIC is greater than 10 µg/mL.

Question: And the “Carbapenem MIC Alone” value [4]?
Answer: The value was “Z (MIC of greater than 10 μg/mL)”.

Question: What about the MIC [5, 18] of the same molecule?
Answer: The MIC was greater than 10 µg/mL.

Question: And the “Carbapenem MIC Alone” value [5]?
Answer: The value was “Z (MIC of greater than 10 μg/mL)”.

Question: What about the MIC [6, 18] of the same molecule?
Answer: The MIC was greater than 10 µg/mL.

Question: What about the “Carbapenem MIC Alone” value [6] of the same molecule?
Answer: The value was “Z (MIC of greater than 10 μg/mL)”.

Question: And the MIC [7, 18]?
Answer: The MIC was greater than 10 µg/mL.

Question: What about the “Carbapenem MIC Alone” value [7] of the same molecule?
Answer: The value was “Z (MIC of greater than 10 μg/mL)”.

Question: And the MIC [8]?
Answer: The MIC was greater than 10 µg/mL.

Question: And the “Carbapenem MIC Alone” value ([9]; AB1144, antibiotic alone)?
Answer: The value was “Y (MIC of 1 μg/mL to 10 μg/mL)”.

Question: And the MIC ([9]; Acinetobacter baumannii, AB1144, biapenem alone)?
Answer: The MIC was greater than 10 µg/mL.

Question: And the MIC [10, 18]?
Answer: The MIC was greater than 10 µg/mL.

Question: What about the “Carbapenem MIC Alone” value [10] of the same molecule?
Answer: The value was “Z (MIC of greater than 10 μg/mL)”.

Question: What about the MIC [11, 18] of the same molecule?
Answer: The MIC was greater than 10 µg/mL.

Question: What about the “Carbapenem MIC Alone” value [11] of the same molecule?
Answer: The value was “Z (MIC of greater than 10 μg/mL)”.

Question: What about the MIC [12, 18] of the same molecule?
Answer: Its MIC is greater than 10 µg/mL.

Question: What about the “Carbapenem MIC Alone” value [12] of the same molecule?
Answer: Its value is “Y (MIC of 1 μg/mL to 10 μg/mL)”.

Question: What about the “Carbapenem MIC Alone” value ([13]; EA1019, antibiotic alone) of the same molecule?
Answer: Its value is “Z (MIC of greater than 10 μg/mL)”.

Question: And the MIC ([13]; Klebsiella aerogenes, EA1019, biapenem alone)?
Answer: The MIC was greater than 10 µg/mL.

Question: Which results are given for C[C@@H](O)[C@H]1C(=O)N2C(C(=O)O)=C(SCCN=CN)C[C@H]12 [Imipenem]?
Answer: Carbapenem MIC Alone [1]: Z (MIC of greater than 10 μg/mL); Carbapenem MIC Alone [2]: Z (MIC of greater than 10 μg/mL); Imipenem MIC Alone [14]: Y (key: X: MIC of less than 1.0 μg/mL; Y: MIC of 1.0 μ/mL or above); Carbapenem MIC Alone [3]: Z (MIC of greater than 10 μg/mL); Carbapenem MIC Alone [4]: Z (MIC of greater than 10 μg/mL); MIC [15]: < 1 µg/mL; Carbapenem MIC Alone [5]: Y (MIC of 1 μg/mL to 10 μg/mL); Carbapenem MIC Alone [6]: Z (MIC of greater than 10 μg/mL); Carbapenem MIC Alone [7]: Z (MIC of greater than 10 μg/mL); Carbapenem MIC Alone [9]: Z (key: X: MIC of less than 1 μg/mL; Y: MIC of 1 μg/mL to 10 μg/mL; Z: MIC of greater than 10 μg/mL); Carbapenem MIC Alone [10]: Z (MIC of greater than 10 μg/mL); MIC [16]: 1 to 10 µg/mL (≈ 3.34 to 33.4 µM); MIC ([16]; Klebsiella aerogenes): > 10 µg/mL; Imipenem MIC Alone [17]: Y (key: X: MIC of less than 1.0 μg/mL; Y: MIC of 1.0 μ/mL or above); Carbapenem MIC Alone [11]: Y (MIC of 1 μg/mL to 10 μg/mL); Carbapenem MIC Alone [12]: Z (MIC of greater than 10 μg/mL); Carbapenem MIC Alone [13]: Z (key: X: MIC of less than 1 μg/mL; Y: MIC of 1 μg/mL to 10 μg/mL; Z: MIC of greater than 10 μg/mL)
